Values of other authors, collected in patent US6310180A, “Method for synthesis of proteins” (Vanderbilt University, priority 1995, dated 2001).
Square brackets hold non-standard residues; d marks the D form. Peptide text beside a SMILES is read from it. Sta = CC(C)C[C@H](N)[C@@H](O)CC(=O)O

Molecular target: HIV-1 protease (Human immunodeficiency virus type 1 group M subtype B, UniProt P03369)
Settings: aspartic protease inhibitor "has been shown to inhibit the HIV-1 protease"; added to the ligation solution to prevent autoproteolysis

Compound: CC(=O)N[C@H](C(=O)N[C@H](C(=O)N[C@@H](CC(C)C)[C@@H](O)CC(=O)N[C@@H](C)C(=O)N[C@@H](CC(C)C)[C@@H](O)CC(=O)O)C(C)C)C(C)C [acetyl-pepstatin] (Ac-VV[Sta]A[Sta]-OH)
- Ki: 20 mM
